Measured values taken from article PMC3128679 (Bioorganic & medicinal chemistry letters, 2011).
Values belong to the compound of their own block, whether it stands above or below them.

What was measured:
Format in all cases: biochemical
SHP2 [1] = target: T1, SHP2 (Homo sapiens, UniProt Q06124); test: in vitro SHP2 inhibition assay; conditions: for SHP2 inhibition at 1 mM: 1 mM compound concentration
T1 sequence (Q06124 1-593): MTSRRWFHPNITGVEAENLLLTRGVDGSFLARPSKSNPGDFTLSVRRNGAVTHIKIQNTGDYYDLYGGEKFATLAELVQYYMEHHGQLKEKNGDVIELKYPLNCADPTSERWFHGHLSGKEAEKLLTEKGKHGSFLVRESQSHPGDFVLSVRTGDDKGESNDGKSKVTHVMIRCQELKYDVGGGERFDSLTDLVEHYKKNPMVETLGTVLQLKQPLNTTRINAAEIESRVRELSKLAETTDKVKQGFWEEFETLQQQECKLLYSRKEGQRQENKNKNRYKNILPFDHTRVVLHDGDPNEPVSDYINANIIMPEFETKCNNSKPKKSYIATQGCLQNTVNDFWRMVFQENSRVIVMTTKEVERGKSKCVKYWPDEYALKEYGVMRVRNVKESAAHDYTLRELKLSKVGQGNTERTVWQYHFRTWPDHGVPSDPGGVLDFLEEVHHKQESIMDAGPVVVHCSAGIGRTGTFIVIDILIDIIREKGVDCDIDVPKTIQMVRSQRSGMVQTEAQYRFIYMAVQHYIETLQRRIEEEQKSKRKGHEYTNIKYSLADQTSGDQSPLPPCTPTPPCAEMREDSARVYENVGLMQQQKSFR

PTPα = PTPα (Homo sapiens, UniProt P18433); test: PTP panel inhibition assay, PTPα; conditions: at 100 µM
Sequence of PTPα (P18433 20-802): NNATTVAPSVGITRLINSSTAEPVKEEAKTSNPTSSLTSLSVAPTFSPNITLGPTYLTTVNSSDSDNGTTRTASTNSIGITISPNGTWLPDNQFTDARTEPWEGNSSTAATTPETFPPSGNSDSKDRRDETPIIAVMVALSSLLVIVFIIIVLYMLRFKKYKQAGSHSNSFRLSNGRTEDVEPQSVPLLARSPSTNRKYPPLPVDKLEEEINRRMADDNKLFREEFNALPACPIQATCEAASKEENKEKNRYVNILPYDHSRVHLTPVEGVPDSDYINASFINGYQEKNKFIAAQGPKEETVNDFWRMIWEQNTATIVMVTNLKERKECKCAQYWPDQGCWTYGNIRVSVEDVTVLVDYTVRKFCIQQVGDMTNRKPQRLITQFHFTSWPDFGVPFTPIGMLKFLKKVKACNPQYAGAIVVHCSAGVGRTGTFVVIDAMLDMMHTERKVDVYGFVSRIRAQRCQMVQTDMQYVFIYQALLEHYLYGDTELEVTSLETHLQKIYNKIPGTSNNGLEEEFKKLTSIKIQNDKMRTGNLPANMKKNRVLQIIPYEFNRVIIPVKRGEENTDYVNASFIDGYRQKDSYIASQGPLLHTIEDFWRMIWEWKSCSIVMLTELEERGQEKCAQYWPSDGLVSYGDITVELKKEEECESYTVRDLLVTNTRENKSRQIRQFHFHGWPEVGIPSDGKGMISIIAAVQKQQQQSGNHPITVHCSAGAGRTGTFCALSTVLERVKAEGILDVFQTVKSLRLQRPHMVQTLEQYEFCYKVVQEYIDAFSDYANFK

SHP2 [2] = target: T1, SHP2; test: steady-state enzyme kinetic analysis of SHP2 inhibition; conditions: C21 at 0, 4, 8 and 12 µM
VHR = VHR (Homo sapiens, UniProt P51452); test: PTP panel inhibition assay, VHR; conditions: at 100 µM
Sequence of VHR (P51452 whole entry, species assumed): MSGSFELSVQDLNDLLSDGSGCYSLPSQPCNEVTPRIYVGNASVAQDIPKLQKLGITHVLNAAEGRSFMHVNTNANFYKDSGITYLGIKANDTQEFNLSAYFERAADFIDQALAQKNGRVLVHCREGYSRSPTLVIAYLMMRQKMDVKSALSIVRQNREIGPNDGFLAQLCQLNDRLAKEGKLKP

LYP = target: T2, LYP (Homo sapiens, UniProt Q9Y2R2); test: PTP panel inhibition assay, LYP; conditions: at 100 µM
T2 sequence (Q9Y2R2 1-807): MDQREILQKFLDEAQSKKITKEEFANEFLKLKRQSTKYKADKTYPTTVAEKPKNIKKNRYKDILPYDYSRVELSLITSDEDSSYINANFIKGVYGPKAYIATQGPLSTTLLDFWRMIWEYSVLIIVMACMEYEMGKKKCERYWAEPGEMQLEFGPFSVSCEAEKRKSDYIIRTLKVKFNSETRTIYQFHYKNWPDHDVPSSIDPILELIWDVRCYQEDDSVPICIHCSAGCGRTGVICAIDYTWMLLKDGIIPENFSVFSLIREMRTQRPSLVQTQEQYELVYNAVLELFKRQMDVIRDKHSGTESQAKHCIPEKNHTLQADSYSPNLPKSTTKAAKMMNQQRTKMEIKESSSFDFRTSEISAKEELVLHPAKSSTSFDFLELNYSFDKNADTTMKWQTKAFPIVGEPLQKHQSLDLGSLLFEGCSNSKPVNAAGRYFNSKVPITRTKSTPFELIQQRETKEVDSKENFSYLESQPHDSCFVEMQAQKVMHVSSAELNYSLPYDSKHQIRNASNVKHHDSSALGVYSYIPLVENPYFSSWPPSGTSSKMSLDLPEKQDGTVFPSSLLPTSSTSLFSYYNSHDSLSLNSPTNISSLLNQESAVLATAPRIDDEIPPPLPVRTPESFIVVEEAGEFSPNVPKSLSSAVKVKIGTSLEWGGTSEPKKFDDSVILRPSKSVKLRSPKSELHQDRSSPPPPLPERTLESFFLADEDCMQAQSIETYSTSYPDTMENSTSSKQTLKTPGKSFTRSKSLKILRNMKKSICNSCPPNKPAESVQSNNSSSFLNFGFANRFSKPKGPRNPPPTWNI

Cdc14 = test: PTP panel inhibition assay, Cdc14; conditions: at 100 µM
SHP1 = SHP1 (Homo sapiens, UniProt P29350); test: SHP1 inhibition assay
Sequence of SHP1 (P29350 whole entry): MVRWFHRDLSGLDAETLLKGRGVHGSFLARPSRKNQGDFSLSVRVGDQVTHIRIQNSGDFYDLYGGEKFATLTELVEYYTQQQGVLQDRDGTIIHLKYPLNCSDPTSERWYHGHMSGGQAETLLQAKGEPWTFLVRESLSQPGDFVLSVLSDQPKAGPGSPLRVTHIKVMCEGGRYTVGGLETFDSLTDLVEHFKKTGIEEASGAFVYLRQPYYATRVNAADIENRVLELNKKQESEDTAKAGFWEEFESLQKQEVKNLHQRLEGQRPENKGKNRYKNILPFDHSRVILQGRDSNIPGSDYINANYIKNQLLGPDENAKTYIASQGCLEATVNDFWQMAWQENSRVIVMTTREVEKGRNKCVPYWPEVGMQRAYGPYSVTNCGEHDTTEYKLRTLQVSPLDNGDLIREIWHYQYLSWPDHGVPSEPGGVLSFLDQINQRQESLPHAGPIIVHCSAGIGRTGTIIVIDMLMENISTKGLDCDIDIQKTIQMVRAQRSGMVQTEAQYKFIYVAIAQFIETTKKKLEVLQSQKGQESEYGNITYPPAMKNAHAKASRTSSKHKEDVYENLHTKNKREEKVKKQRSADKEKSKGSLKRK

PTP1B = target: T3, PTP1B (Homo sapiens, UniProt P18031); test: PTP1B inhibition assay
T3 sequence (P18031 1-435): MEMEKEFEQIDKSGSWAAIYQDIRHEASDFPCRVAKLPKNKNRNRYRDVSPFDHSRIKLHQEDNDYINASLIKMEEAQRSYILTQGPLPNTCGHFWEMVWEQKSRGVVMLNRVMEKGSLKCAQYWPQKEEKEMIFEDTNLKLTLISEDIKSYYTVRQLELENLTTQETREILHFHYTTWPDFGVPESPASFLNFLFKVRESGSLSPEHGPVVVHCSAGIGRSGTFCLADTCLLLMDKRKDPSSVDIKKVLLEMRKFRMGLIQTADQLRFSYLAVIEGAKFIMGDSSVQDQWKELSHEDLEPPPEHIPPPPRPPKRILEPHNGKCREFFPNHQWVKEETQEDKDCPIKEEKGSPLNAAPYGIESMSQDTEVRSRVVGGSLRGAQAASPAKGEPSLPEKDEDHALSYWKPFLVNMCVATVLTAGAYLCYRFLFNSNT

SMILES: Cc1cc(S(=O)(=O)O)ccc1N1N=C(C(=O)O)CC1=O [Compound C21-A1]
- fold decreased SHP2 inhibition (SHP2 [1]; relative to C21): ~ 5 fold

SMILES: O=C(O)C1=NN(c2ccccc2)C(=O)C1 [Compound C21-A3]
- IC50 (SHP2 [1]): > 1000 µM
- SHP2 inhibition at 1 mM (SHP2 [1]): failed to inhibit SHP2

SMILES: CC1=NN(c2ccc(S(=O)(=O)O)cc2C)C(=O)C1 [Compound C21-A4]
- IC50 (SHP2 [1]): > 1000 µM
- SHP2 inhibition at 1 mM (SHP2 [1]): failed to inhibit SHP2

SMILES: O=C(O)C1=NN(c2ccc(S(=O)(=O)O)cc2)C(=O)C1 [Compound C21-A2]
- fold decreased affinity for SHP2 (SHP2 [1]; relative to C21-A1): ~ 4 fold

The next lines start with results.

- inhibition of PTPα (PTPα): almost no inhibition
- concentration dependence of SHP2 inhibition (SHP2 [1]): concentration-dependent inhibition
- mode of inhibition against SHP2 (SHP2 [2]): reversible and competitive
- inhibition of VHR (VHR): almost no inhibition
- inhibition of LYP (LYP): almost no inhibition
SMILES: Cc1cc(S(=O)(=O)O)c(S(=O)(=O)O)cc1N1N=C(C(=O)O)CC1=O [Compound C21]
- inhibition of Cdc14 (Cdc14): almost no inhibition

- inhibition against SHP1 compared with SHP2 (in words) (SHP1): better inhibition
- inhibition against PTP1B compared with SHP2 (in words) (PTP1B): better inhibition
- concentration dependence of SHP2 inhibition (SHP2 [1]): concentration-dependent inhibition
- inhibitory activity against SHP2 (in words) (SHP2 [1]): only moderate inhibitory activity
SMILES: CC(=O)c1c(C)oc2ccc(NS(=O)(=O)c3cccc(C(=O)O)c3)cc12 [Compound C30]

- inhibition against SHP1 compared with SHP2 (in words) (SHP1): better inhibition
- inhibition against PTP1B compared with SHP2 (in words) (PTP1B): better inhibition
- concentration dependence of SHP2 inhibition (SHP2 [1]): concentration-dependent inhibition
- inhibitory activity against SHP2 (in words) (SHP2 [1]): only moderate inhibitory activity
SMILES: CC(=O)N(c1ccc2oc3c(c2c1)CCCC3)S(=O)(=O)c1ccc(C(=O)O)cc1 [Compound C18]
